In US12209087B2, “AKT1 modulators” (Alterome Therapeutics, Inc., priority 2022, dated 2025):

Molecular target: T1, full length AKT E17K (Homo sapiens, UniProt P31749, E17K)
T1 construct: host or cells: HEK-293 (ATCC CRL-1573)
Test: NanoBRET Target Engagement (TE) Assay
Assay type: cell-based
Settings: competitive displacement of tracer in cells, read-out: AKT1 E17K IC50
Outline: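 Compound and tracer incubated 2 h before luminescence at donor 450 nm and acceptor 600 nm, with extracellular signal inhibited. EC50 by sigmoidal variable-slope regression.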

T1 sequence (P31749 whole entry E17K): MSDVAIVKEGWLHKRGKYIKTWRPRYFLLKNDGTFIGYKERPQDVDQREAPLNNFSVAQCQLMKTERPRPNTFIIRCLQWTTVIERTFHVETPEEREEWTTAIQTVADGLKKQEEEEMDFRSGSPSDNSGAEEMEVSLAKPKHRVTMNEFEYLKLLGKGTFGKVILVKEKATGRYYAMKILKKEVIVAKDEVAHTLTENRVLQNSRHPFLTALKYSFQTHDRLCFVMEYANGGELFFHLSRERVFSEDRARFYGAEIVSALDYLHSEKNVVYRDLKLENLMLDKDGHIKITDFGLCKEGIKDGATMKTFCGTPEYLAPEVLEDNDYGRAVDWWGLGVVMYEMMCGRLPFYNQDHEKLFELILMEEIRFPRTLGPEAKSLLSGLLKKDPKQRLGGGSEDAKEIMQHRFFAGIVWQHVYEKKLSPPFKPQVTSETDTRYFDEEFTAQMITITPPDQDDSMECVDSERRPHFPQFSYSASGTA

Row | IC50 [nM] | Structure (SMILES)
1 | < 15 | N#Cc1nccc(NC2CCN(Cc3ccc(-n4c(-c5cccnc5N)nc5ccc(C6CCOC6)nc54)cc3)CC2)n1 (centres unmarked) [Example 417, 4-((1-(4-(2-(2-Aminopyridin-3-yl)-5-(tetrahydrofuran-3-yl)-3H-imidazo[4,5-b]pyridin-3-yl)benzyl)piperidin-4-yl)amino)pyrimidine-2-carbonitrile]
2 | 15 to 60 | [2H]C([2H])(c1ccc(-n2c(-c3cccnc3N)nc3cccnc32)cc1)N1CCC(Nc2ccnc(C#N)n2)CC1 [Example 385, 4-((1-((4-(2-(2-Aminopyridin-3-yl)-3H-imidazo[4,5-b]pyridin-3-yl)phenyl)methyl-d2)piperidin-4-yl)amino)pyrimidine-2-carbonitrile]
3 | 60 to 600 | CN1CCN(c2ccc3nc(-c4cccnc4N)n(-c4ccc(CN5CCN(c6ccnc(C#N)n6)CC5)cc4)c3n2)CCC1=O [Example 345, 4-(4-(4-(2-(2-Aminopyridin-3-yl)-5-(4-methyl-5-oxo-1,4-diazepan-1-yl)-3H-imidazo[4,5-b]pyridin-3-yl)benzyl)piperazin-1-yl)pyrimidine-2-carbonitrile]
4 | < 15 | N#Cc1nccc(NC2CCN(Cc3ccc(-n4c(-c5cccnc5N)nc5ccc(-c6cccnc6C#N)nc54)cc3)CC2)n1 [Example 409, 4-((1-(4-(2-(2-Aminopyridin-3-yl)-5-(2-cyanopyridin-3-yl)-3H-imidazo[4,5-b]pyridin-3-yl)benzyl)piperidin-4-yl)amino)pyrimidine-2-carbonitrile]
5 | < 15 | N#Cc1nccc(NC2CCN(Cc3ccc(-n4c(-c5cccnc5N)nc5ccc(-c6ccc(OC(F)F)cn6)nc54)cc3)CC2)n1 [Example 579, 4-((1-(4-(2-(2-Aminopyridin-3-yl)-5-(5-(difluoromethoxy)pyridin-2-yl)-3H-imidazo[4,5-b]pyridin-3-yl)benzyl)piperidin-4-yl)amino)pyrimidine-2-carbonitrile]

Same assay, conditions: competitive tracer displacement in living cells, read-out: AKT1 E17K IC50

Row | IC50 [nM] | Structure (SMILES)
6 | < 15 | N#Cc1cccnc1C(=O)NC1CCN(Cc2ccc(-n3c(-c4cccnc4N)nc4ccc(-c5ccccc5)nc43)cc2)CC1 [Example 61, N-(1-(4-(2-(2-Aminopyridin-3-yl)-5-phenyl-3H-imidazo[4,5-b]pyridin-3-yl)benzyl)piperidin-4-yl)-3-cyanopicolinamide]
7 | 15 to 60 | N#Cc1cc(NC2CCN(Cc3ccc(-n4c(-c5cccnc5N)nc5ccc(C6CC6)nc54)cc3)CC2)ncn1 [Example 291, 6-((1-(4-(2-(2-Aminopyridin-3-yl)-5-cyclopropyl-3H-imidazo[4,5-b]pyridin-3-yl)benzyl)piperidin-4-yl)amino)pyrimidine-4-carbonitrile]
8 | 15 to 60 | N#Cc1ccnc(N2CCN(Cc3ccc(-n4c(-c5cccnc5N)nc5ccc(-c6ccccc6F)nc54)cc3)CC2)n1 [Example 282, 2-(4-(4-(2-(2-Aminopyridin-3-yl)-5-(2-fluorophenyl)-3H-imidazo[4,5-b]pyridin-3-yl)benzyl)piperazin-1-yl)pyrimidine-4-carbonitrile]
9 | 15 to 60 | N#Cc1ccnc(N2CCCN(Cc3ccc(-n4c(-c5cccnc5N)nc5ccc(-c6ccccc6)nc54)cc3)CC2)n1 [Example 228, 2-(4-(4-(2-(2-Aminopyridin-3-yl)-5-phenyl-3H-imidazo[4,5-b]pyridin-3-yl)benzyl)-1,4-diazepan-1-yl)pyrimidine-4-carbonitrile]
10 | 15 to 60 | CN(c1ncnc(C#N)n1)C1CCN(Cc2ccc(-n3c(-c4cccnc4N)nc4ccc(-c5ccccc5)nc43)cc2)CC1 [Example 223, 4-((1-(4-(2-(2-aminopyridin-3-yl)-5-phenyl-3H-imidazo[4,5-b]pyridin-3-yl)benzyl)piperidin-4-yl)(methyl)amino)-1,3,5-triazine-2-carbonitrile]
11 | 600 to 10000 | N#Cc1ccnc(C(=O)NC2CCN(Cc3ccc(-n4c(-c5cccnc5N)nc5cccnc54)cc3)CC2)c1 [Example 31, N-(1-(4-(2-(2-Aminopyridin-3-yl)-3H-imidazo[4,5-b]pyridin-3-yl)benzyl)piperidin-4-yl)-4-cyanopicolinamide]
